Legend:
CB1 [1] = biological target: T1, CB1 (Homo sapiens (Human), UniProt P21554); assay: Displacement of [3H]CP55940 in membranes of CHO-K1 cells over-expressing CB1;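 on all read-outs here: reported values are averages of 3-6 independent measurements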; conditions: for Binding Selectivity using CP55940 Displacement: CB1 versus CB2; for Ki: read-out: Ki (nM) v. [3H]CP55940 at CB1, radioligand [3H]CP55940, CHO-K1 membranes
Description: Further characterization of select compounds was performed using radioligand displacement of [3H]1 and equilibrium dissociation constant (Ki) values were determined. Selectivity of these compounds at CB1 versus CB2 was also determined by obtaining Ki values at either receptor using displacement of [3H]CP55940 in membranes of CHO-K1 cells over-expressing either receptor. Data reported are average values from 3-6 measurements.
Selectivity against the CB2 receptor was determined by comparing the compound displacement of radiolabeled CP55940, which is a cannabinoid known to act as a full agonist at both CB1 and CB2 receptors.

CB1 [2] = biological target: T1, CB1; assay: Radioligand displacement of [3H]SR141716 at CB1; type: binding; conditions: radioligand [3H]SR141716; read-out: Ki (nM) v. [3H]SR141716 at CB1
MDCK-MDR = MDCK-MDR transport (apical to basal); type: in vitro ADME
CB1 [3] = biological target: T1, CB1; assay: CB1 activated Gαq16-coupled intracellular calcium mobilization assay in CHO-K1 cells; type: cell-based; conditions: apparent affinity (Ke)
CB2 = CB2 (Homo sapiens (Human), UniProt P34972); assay: Displacement of [3H]CP55940 in membranes of CHO-K1 cells over-expressing CB2; type: binding; conditions: radioligand [3H]CP55940, CHO-K1 membranes; read-out: Ki (nM) v. [3H]CP55940 at CB2
[4] = Brain penetration / plasma and brain levels after oral dosing in SD rats; type: in vivo, Sprague-Dawley (SD) rats; conditions: Sprague-Dawley, rat, oral 10 mg/kg
Description: However, unlike otenabant, this sulfonamide is a peripherally selective compound. […] Select compounds were chosen for study to determine penetration into the CNS. Selected compounds were dosed orally at 10 mg/kg in SD rats. Brain and plasma samples were collected at 1, 2, 4, and 24 hours post dose and samples were analyzed by MS (Table 2, below). Since unperfused brains were used and the blood volume in unperfused brains is approximately 4%, a brain to plasma level of ≦0.04 represents no discernible penetration into the CNS.

Sequence of CB2 (P34972 whole entry): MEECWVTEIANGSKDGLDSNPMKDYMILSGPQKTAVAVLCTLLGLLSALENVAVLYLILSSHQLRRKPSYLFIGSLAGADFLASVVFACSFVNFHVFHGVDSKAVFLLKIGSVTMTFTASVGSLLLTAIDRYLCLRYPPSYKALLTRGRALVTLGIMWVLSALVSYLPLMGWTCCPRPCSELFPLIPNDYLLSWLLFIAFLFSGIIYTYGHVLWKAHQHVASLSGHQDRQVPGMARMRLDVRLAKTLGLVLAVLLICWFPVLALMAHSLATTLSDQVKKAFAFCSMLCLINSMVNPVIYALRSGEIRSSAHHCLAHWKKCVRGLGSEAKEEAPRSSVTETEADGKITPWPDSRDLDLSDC
T1 sequence (P21554 whole entry): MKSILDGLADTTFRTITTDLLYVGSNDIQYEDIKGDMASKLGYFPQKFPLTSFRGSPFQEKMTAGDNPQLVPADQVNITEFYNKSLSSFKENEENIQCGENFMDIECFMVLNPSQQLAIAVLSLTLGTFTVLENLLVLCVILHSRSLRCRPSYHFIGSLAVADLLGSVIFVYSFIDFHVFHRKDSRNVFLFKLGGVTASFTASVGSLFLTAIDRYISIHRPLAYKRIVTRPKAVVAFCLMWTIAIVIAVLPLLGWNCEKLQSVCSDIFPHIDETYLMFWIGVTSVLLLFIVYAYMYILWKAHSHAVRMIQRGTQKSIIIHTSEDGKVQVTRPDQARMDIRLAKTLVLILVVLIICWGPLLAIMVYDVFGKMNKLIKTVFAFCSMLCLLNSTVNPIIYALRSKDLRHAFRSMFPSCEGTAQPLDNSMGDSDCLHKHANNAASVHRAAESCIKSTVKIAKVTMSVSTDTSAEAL

Kp ([4]; brain and plasma, range over sampling times, read-out: brain to plasma ratios) | Cmax ([4]; in vivo) [ng/g] | SMILES | Binding Selectivity using CP55940 Displacement (CB1 [1]) | Ki (CB1 [1]) [nM] | Ki (CB1 [2]) [nM] | % MDCK-MDR transport (Apical to Basal) (MDCK-MDR) [%] | Ke (nM) at CB1 (CB1 [3]) [nM] | Ki (CB2) [nM]
– | – | NC(=O)C1(c2ccccc2)CCN(c2ncnc3c2nc(-c2ccccc2Cl)n3-c2ccc(Cl)cc2)CC1 | 3076.5 | 1.79 | 0.28 | 5.6 ± 2.4 | 9 | 5510
– | – | CS(=O)(=O)NCC1CCC(CNc2ncnc3c2nc(-c2ccccc2Cl)n3-c2ccc(Cl)cc2)CC1 (centres unmarked) | 8.6 | 258 | 44.5 | >50 | 201.00 | 2230
– | – | NS(=O)(=O)NCC1CCC(CNc2ncnc3c2nc(-c2ccccc2Cl)n3-c2ccc(Cl)cc2)CC1 (centres unmarked) | 30.2 | 355 | 94.5 | – | 549.0 | 10700
– | – | NC1(c2ccccc2)CCN(c2ncnc3c2nc(-c2ccccc2Cl)n3-c2ccc(Cl)cc2)CC1 | 151 | 11 | – | <1 | 15.89 | 1660
– | – | CC(C)(C)OC(=O)NC1(c2ccccc2)CCN(c2ncnc3c2nc(-c2ccccc2Cl)n3-c2ccc(Cl)cc2)CC1 | 1959 | 7.12 | – | <1 | 3.93 | 13900
– | – | CC(C)(C)NC(=O)NC1(c2ccccc2)CCN(c2ncnc3c2nc(-c2ccccc2Cl)n3-c2ccc(Cl)cc2)CC1 | 784 | 25.5 | – | <1 | 19.17 | 20000
– | – | CC(=O)NC1(c2ccccc2)CCN(c2ncnc3c2nc(-c2ccccc2Cl)n3-c2ccc(Cl)cc2)CC1 | 121 | 6 | – | 6 | 10.31 | 726
– | – | CC(C)(C)NC(=O)C1(c2ccccc2)CCN(c2ncnc3c2nc(-c2ccccc2Cl)n3-c2ccc(Cl)cc2)CC1 | 4902 | 4.08 | – | <1 | 2.2 | 20000
– | – | O=S1(=O)CCN(c2ncnc3c2nc(-c2ccccc2Cl)n3-c2ccc(Cl)cc2)CC1 [4-[8-(2-Chlorophenyl)-9-(4-chlorophenyl)-9H-purin-6-yl]-1λ^6,4-thiomorpholine-1,1-dione] | 26.0 | 32.1 | 16.8 | – | 159.00 | 834
0.05 to 0.11 | 1650 | CS(=O)(=O)NC1(c2ccccc2)CCN(c2ncnc3c2nc(-c2ccccc2Cl)n3-c2ccc(Cl)cc2)CC1 [N-{1-[8-(2-Chlorophenyl)-9-(4-chlorophenyl)-9H-purin-6-yl]-4-phenylpiperidin-4-yl}methanesulfonamide] | 153 | 6.21 | – | <1 | – | 948

— US9187480B2, “Peripherally restricted diphenyl purine derivatives” (RESEARCH TRIANGLE INSTITUTE, priority 2012, dated 2015)
